Residues, ends and D or L forms follow the SMILES beside them. *: point of attachment. Cbz = O=C(OCc1ccccc1)*
Legend:
c-Abl [1] = test: c-Abl levels in the ER fraction, ER stress; type: cell-based
Description: (§1) Cells were treated with A23187 (Sigma) or Brefeldin A (Sigma).
(§2) Isolation of the ER fraction: Cells were washed with PBS, lysed in homogenization buffer (50 mM Tris-HCl, pH 8.0, 1 mM b-mercaptoethanol, 1 mM EDTA, 0.32 M sucrose and 0.1 mM PMSF), and then centrifuged at 5,000×g for 10 minutes. The supernatant was collected and centrifuged at 105,000×g for 1 hour. […] The resulting supernatant was used as the ER fraction.

c-Abl [2] = test: c-Abl targeting to mitochondria under ER stress, immunofluorescence and immunoblot; type: cell-based
Description: as §1
Digital confocal immunofluorescence microscope: Cells grown on poly-D-lysine coated glass coverslips were fixed (3.7% formaldehyde in PBS, pH 7.4; 10 minutes), permeabilized (0.2% Triton X-100; 10 min), blocked for 30 minutes in media containing serum. After rinsing with PBS, immunostaining was performed by incubating the cells with 50 ng/slide of anti-c-Abl (K-12 rabbit polyclonal; Santa Cruz) and anti-grp-78 (C-20 goat polyclonal; Santa Cruz). For c-Abl and calreticulin staining, cells were incubated first with anti-c-Abl alone for 1 hour followed by blocking for 30 minutes in media containing serum. After washing with PBS, cells were then incubated with anti-calreticulin (rabbit polyclonal; StressGen). Finally, cells were incubated with a 1:250 dilution of CY-3 or Fluorescein (FITC)-conjugated anti-rabbit or anti-goat secondary antibodies (Jackson ImmunoResearch) for 1 hour. Mitochondria were stained with 0.006 ng/slide Mitotracker Green FM (Molecular Probes). Nuclei were stained with 4,6-diamino-2-phenylindole (DAPI; 1 mg/ml in PBS). Coverslips were mounted onto slides with 0.1 M Tris (pH 7.0) in 50% glycerol. Cells were visualized by digital confocal immunofluorescence and images were captured with cooled CCD camera mounted on a Zeiss Axioplan 2 microscope. Images were deconvolved using Slidebook software (Intelligent Imaging Innovations, Inc., Denver, Colo.).
(§3) The supernatant was collected and centrifuged at 10,000×g for 10 minutes. […] Protein concentration was determined by the Bio-Rad protein estimation kit.

c-Abl [3] = test: c-Abl levels in cytoplasmic and nuclear fractions, ER stress; type: cell-based
Source text: (§4) Isolation of cytoplasmic and nuclear fractions: The cytoplasmic and nuclear fractions were isolated as described in Example 1.

cytochrome c = test: Cytochrome c release in MEFs under ER stress; type: cell-based, mouse; details: wild-type MEFs
Description: as §1, §4

grp78 = grp78 expression in the ER fraction, ER stress; type: cell-based
Description: as §1, §2

MEFs = test: Apoptosis by sub-G1 DNA in MEFs under ER stress; type: cell-based, mouse
Description: Apoptosis assays: DNA content was assessed by staining ethanol-fixed cells with propidium iodide and monitoring by FACScan (Becton-Dickinson).

c-Abl [4] = test: Mitochondrial c-Abl kinase activity, GST-Crk(120-225) phosphorylation, ER stress; type: cell-based; details: anti-c-Abl immunoprecipitates of mitochondrial fraction
Description: as §3
Analysis of c-Abl activity: Cell lysates were prepared as described in Example 1 and subjected to immunoprecipitation with anti-c-Abl (K-12; Santa Cruz). The immunoprecipitates were resuspended in kinase buffer (see Example 1) containing […] of [g-32P]ATP and GST-Crk(120-225) or GST-Crk(120-212) for 15 minutes at 30° C. The reaction products were analyzed by SDS-PAGE and autoradiography.

26S proteosome = test: In vitro Ub-proteosome system, degradation of catalase; type: biochemical
Source text: As a control, degradation was inhibited when [g-S]ATP was substituted for ATP to prevent ubiquitination. […] Lactacystin, another proteosome inhibitor, was used to assess degradation of catalase in cells.

Row | Structure (SMILES) | c-Abl levels in the ER fraction (c-Abl [1]) | translocation of c-Abl to mitochondria, intracellular fluorescence (c-Abl [2]; anti-c-Abl and Mitotracker signals) | c-Abl protein in the mitochondrial fraction, immunoblot (c-Abl [2]; mitochondrial fraction) | c-Abl levels in the cytoplasm or nucleus (c-Abl [3]) | release of cytochrome c (cytochrome c) | expression of grp78 (grp78) | induction of apoptosis (MEFs; c-Abl−/− cells) | apoptosis, sub-G1 DNA (MEFs; wild-type cells) | mitochondrial c-Abl activity (c-Abl [4]) | degradation of catalase (26S proteosome)
1 | CNc1ccc2oc(C[C@H]3O[C@@]4(CC[C@H]3C)O[C@H]([C@H](C)C(=O)c3ccc[nH]3)[C@H](C)C[C@H]4C)nc2c1C(=O)O [A23187] | time-dependent decrease | translocation of c-Abl to mitochondria | time-dependent increase | little if any effect | induces the release of cytochrome c | increases in expression of grp78 | little effect | induction of sub-G1 DNA | increases in mitochondrial c-Abl activity | 
2 | CC(C)C[C@@H](C=O)NC(=O)[C@H](CC(C)C)NC(=O)[C@H](CC(C)C)NC(=O)OCc1ccccc1 [MG132] (Cbz-Leu-Leu-Leu-aldehyde) |  |  |  |  |  |  |  |  |  | blocked

Reference: US7556935B2 (Dana-Farber Cancer Institute, Inc., priority 2001, dated 2009)
